Source: patent EP0799188B1, “AMIDES OF MONO AND DICARBOXYLIC ACIDS WITH GLYCOSAMINES, SELECTIVELY ACTIVE ON THE CANNABINOID PERIPHERAL RECEPTOR” (LIFEGROUP S.p.A., priority 1994, dated 1996)
Read-outs that look alike come from different tables or passages of the source.

Tests used:
RBL-2H3 cells = assay: 3H-serotonin release induced by ADNP/DNP.HSA immunogenic stimulation; format: cell-based, rat; conditions: for effect on serotonin release (RBL cells immunogenic activation): statement in words on Table 3
CB2 receptor [1] = target: T1, CB2 receptor (Rattus norvegicus, UniProt Q9QZN9); assay: saturation curve of 3H-WIN 55,212-2 binding to RBL-2H3 cell membranes; conditions: 3H-WIN 55,212-2 0.5 to 20 nM, 30 µg membrane proteins, 30°C 60 min
T1 construct: 30 µg membrane proteins prepared in item a); endogenous in cells; host or cells: RBL-2H3 cells (plasma membrane preparation)
T1 sequence (Q9QZN9 1-360): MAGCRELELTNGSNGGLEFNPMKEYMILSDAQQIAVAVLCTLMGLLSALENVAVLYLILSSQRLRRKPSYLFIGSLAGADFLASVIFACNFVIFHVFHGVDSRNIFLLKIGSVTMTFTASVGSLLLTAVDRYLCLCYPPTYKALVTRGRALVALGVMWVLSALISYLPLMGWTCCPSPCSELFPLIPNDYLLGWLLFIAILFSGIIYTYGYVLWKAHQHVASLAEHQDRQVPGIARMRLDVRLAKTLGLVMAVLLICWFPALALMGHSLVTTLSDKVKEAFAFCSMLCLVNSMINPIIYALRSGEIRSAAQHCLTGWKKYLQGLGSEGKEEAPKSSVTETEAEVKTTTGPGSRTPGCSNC

[2] = test system: cerebellar granule cell culture; assay: neuroprotective effect against glutamate-induced cell death (MTT); format: cell-based, mouse
CB2 receptor [3] = target: T1, CB2 receptor; assay: 3H-WIN 55,212-2 binding displacement on RBL-2H3 cell membranes; conditions: competitor 10 µM; amides in 0.1% DMSO, Anandamide and Nabilone in 0.1% ethanol
CB2 receptor [4] = target: CB2 receptor (Homo sapiens, UniProt P34972); conditions: CB2 versus CB1 central receptor; cited from earlier work
Sequence of CB2 receptor (Homo sapiens, UniProt P34972) (P34972 whole entry): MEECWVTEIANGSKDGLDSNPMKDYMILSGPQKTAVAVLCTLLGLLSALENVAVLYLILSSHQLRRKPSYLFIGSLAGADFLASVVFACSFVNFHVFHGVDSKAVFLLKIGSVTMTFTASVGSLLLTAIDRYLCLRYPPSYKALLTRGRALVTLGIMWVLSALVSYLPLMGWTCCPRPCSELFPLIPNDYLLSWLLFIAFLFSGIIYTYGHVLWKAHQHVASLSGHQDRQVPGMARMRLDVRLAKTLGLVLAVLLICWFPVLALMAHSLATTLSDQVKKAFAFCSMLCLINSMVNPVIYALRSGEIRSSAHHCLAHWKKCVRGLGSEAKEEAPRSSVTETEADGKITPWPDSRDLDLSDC

SMILES	3H-serotonin net release inhibition (%) (RBL-2H3 cells; 30µM, + anandamide (12.5 µM))	3H-serotonin net release inhibition (%) (RBL-2H3 cells; 30µM, -anandamide)	3H-serotonin net release (%) (RBL-2H3 cells; 50µM, 0.1% DMSO and 0.1% ethanol)	3H-serotonin net release inhibition (%) (RBL-2H3 cells; WIN 55,212-2 30 µm, + 12.5µM anandamide)	3H-serotonin net release inhibition (%) (RBL-2H3 cells; WIN 55,212-2 30 µm, + 12.5µM arachidonic acid)	3H-serotonin net release inhibition (%) (RBL-2H3 cells; WIN 55,212-2 30 µm, + 12.5µM ethanolamide + 12.5µM arachidonic acid)	3H-serotonin net release inhibition (%) (RBL-2H3 cells; WIN 55,212-2 30 µm, + 12.5µM ethanolamine)	3H-serotonin net release inhibition (%) (RBL-2H3 cells; WIN 55,212-2 30 µm, DNP.HSA alone)	EC50 (RBL-2H3 cells; inhibition of 3H-serotonin release, +anandamide (12.5 µM), read-out: ED50 (the source's name)) [µM]	EC50 (RBL-2H3 cells; inhibition of 3H-serotonin release, -anandamide, read-out: ED50 (the source's name)) [µM]	EC50 (RBL-2H3 cells; inhibition of serotonin release, 0.1% DMSO and 0.1% ethanol, read-out: ED50 (µm)) [µM]	effect on serotonin release (RBL cells immunogenic activation) (RBL-2H3 cells)	Bmax (CB2 receptor [1]) [pM]	EC50 ([2]; glutamate 500 µM for 5 minutes, compound added for 10 minutes, 15 minutes after removing glutamate, MTT after 24 hours, means ± SEM)	protective effect against cell death induced by glutamate ([2]; glutamate 500 µM, anandamide up to 100 µM)	Displacement (%) (CB2 receptor [3])	Specific binding (CB2 receptor [3])	affinity to the CB2 receptor, folds inferior to that of the central receptor (CB2 receptor [4]) [folds]	inhibition at 12.5 µM (RBL-2H3 cells; Rattus norvegicus, RBL-2H3, read-out: 3H-serotonin net release inhibition (%), 12.5µM, -WIN) [%]	3H-serotonin net release (%) (RBL-2H3 cells; concentration not given, 0.1% DMSO and 0.1% ethanol)
Cc1c(C(=O)c2cccc3ccccc23)c2cccc3c2n1[C@H](CN1CCOCC1)CO3 [WIN 55,212-2, reference compound]	36	100	0	15	59	61	72	69	40	6.4	6.4	able to inhibit, in a concentration-dependent way	100 to 250	–	–	–	–	–	–	–
CCCCC/C=C\C/C=C\C/C=C\C/C=C\CCCC(=O)NCCO [Anandamide, arachidonylethanolamide, reference compound]	–	–	–	–	–	–	–	–	–	–	–	unable to affect serotonin release	–	no effect (3)	not effective	95	99	30	7	100
